For test [1], the system named is spontaneously hypertensive rats (SHR). Kind of test: Antihypertensive effect in spontaneously hypertensive rats. The note with it: 60 minutes. The format is in vivo. The procedure: 8. Antihypertensive effect: Groups of rats each comprising 6-9 spontaneously hypertensive rats (SHR) were used. The compounds of the present invention or DPH was given intraperitoneally. The rate of antihypertension 60 minutes after the administration was determined.

The test system of test [2] is normal rats and SART stress rats. Kind of test: Analgesic effect, pain induced by Bradykinin. The format is in vivo, rats (SD-strain male). The procedure:
5.4 Method of measuring a pain induced by Bradykinin:
Groups each comprising 4-8 SD-strain male normal rats and SART stress rats to which SART stress had been applied for 4 days were used. The tests were carried out according to the method of Deffenu et al. [Deffenu, G., Pegrassi, L., & Fumachi. B.; J. Pharm. Pharmacol.; 18, 135 (1966)] and Blane method [Blane, G. F.; J. Pharm. Pharmacol.; 19, 367 (1967)]. The effect judged was shown by ratio of the rats in which the effect was recognized according to the method of Abe, et al. [Abe, Kaneko & Takagi; Folia Pharmacol. Japon.; 67, 9-14 (1971)].

The test system of a further test is dd-strain male mice. Kind of test: Inhibitory effect on Tremorine-induced tremor. The format is in vivo. The conditions noted are these: 100 mg/kg intraperitoneal; tremorine 10 mg/Kg. How it is done: 9. Inhibitory effect on Tremorine-induced tremor:
Groups of mice each comprising 10-40 dd-strain male mice were used. Effect of the compounds of the present invention on tremor caused by tremorine was examined. The compounds of the present invention or DPH was given intraperitoneally. 45 minutes thereafter, 10 mg/Kg of tremorine was given intraperitoneally for inducing the tremor.

For test [3], the system named is normal mice and SART stress mice. In words: Analgesic effect, D'Amour-Smith method. The note with it: for responders at 100 mg/kg / responders at 160 mg/kg: Mus musculus; for responders at 160 mg/kg: peroral 160 mg/kg; for Analgesic effect: peroral 50 mg/kg. The format is in vivo, mice (ddY-strain male). The essentials: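 ddY male normal mice and mice under 4-day SART stress (n=10/group); black-inked tail root irradiated with infrared rays (up to 15 s cutoff), escape latency recorded. Effect expressed as proportion of mice whose mean latency at 30, 60, 90 and 120 min post-dose was at least 2× pre-dose latency.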

Where [4] appears, read: SART stress rats, intraperitoneal 100 mg/kg.
The mark [5] stands for this setting: SART stress rats, peroral 100 mg/kg.
Where [6] appears, read: normal rats, intraperitoneal 100 mg/kg.
Setting [7] is: ip, SART stress mice, intraperitoneal 100 mg/kg.
[8] abbreviates: ip, normal mice, intraperitoneal 100 mg/kg.
The mark [9] stands for this setting: po, SART stress mice, peroral 100 mg/kg.
The mark [10] stands for this setting: po, normal mice, peroral 100 mg/kg.

For `O=C1NC(=O)C(c2ccc(O)cc2)(c2ccc(O)cc2)N1` [Compound 4, 5,5-Bis(4-hydroxyphenyl)hydantoin], the Rate of antihypertension is on record as 21.5% in test [1] (100 mg/Kg intraperitoneal), 34.1% in test [1] (150 mg/Kg intraperitoneal) and 45.7% in test [1] (300 mg/Kg intraperitoneal). Further, the Analgesic effect in test [2] (setting [4]) amounted to 100%; in test [2] (setting [5]) it was 40%; in test [2] (setting [6]), 100%; in test [2] (normal rats, peroral 100 mg/kg), 0%; in test [3] (SART stress mice) it was 40%; in test [3] (normal mice) it was 10%. Also, in the test with dd-strain male mice, the “Inhibitory effect on Tremorine-induced tremor” value worked out at 54%. Further, the responders at 100 mg/kg in test [3] (setting [7]) is 60%; in test [3] (setting [8]), 40%; in test [3] (setting [9]), 50%; in test [3] (setting [10]) it was 20%. In addition, the responders at 160 mg/kg was 60% in test [3] (po, SART stress mice) and 40% in test [3] (po, normal mice).
In test [1] (150 mg/Kg intraperitoneal), `O=C1NC(=O)C(c2cc(O)c(O)c(O)c2)(c2cc(O)c(O)c(O)c2)N1` [Compound 36, 5,5-Bis(3,4,5-trihydroxyphenyl)hydantoin] had a Rate of antihypertension of 19.8%. Further, the Analgesic effect in test [2] (setting [4]) came to 50%; in test [2] (setting [5]) it was 33.3%; in test [2] (setting [6]), 33.3%; in test [2] (normal rats, peroral 100 mg/kg), 10%. The responders at 100 mg/kg in test [3] (setting [7]) amounted to 60%; in test [3] (setting [8]), 40%; in test [3] (setting [9]) it was 30%; in test [3] (setting [10]), 20%. Besides, the responders at 160 mg/kg in test [3] (po, SART stress mice) was determined as 40%; in test [3] (po, normal mice) it was 30%.
With `COc1ccc(C2(c3ccc(OC)c(Cl)c3)NC(=O)NC2=O)cc1` (stereo not drawn) [Compound 2, 5-(3-chloro-4-methoxyphenyl)-5-(4-methoxyphenyl)hydantoin], the Rate of antihypertension in test [1] (150 mg/Kg intraperitoneal) amounted to 22.4%. Further, the Analgesic effect in test [2] (setting [4]) stood at 75%; in test [2] (setting [5]), 30%; in test [2] (setting [6]), 66.7%; in test [2] (normal rats, peroral 100 mg/kg), 10%. The “Inhibitory effect on Tremorine-induced tremor” value with dd-strain male mice came to 38%. Also, the responders at 100 mg/kg was 50% in test [3] (setting [7]), 30% in test [3] (setting [8]), 30% in test [3] (setting [9]) and 10% in test [3] (setting [10]). Moreover, the responders at 160 mg/kg is 60% in test [3] (po, SART stress mice) and 30% in test [3] (po, normal mice).
